One data set concerns Balb/c mice. Briefly: In vivo safety study, one-week intraperitoneal administration. Also on record: species or system mouse. The settings on record: 20 mg/kg i.p. As for the experimental part:
Animals: The study utilized male Balb/c mice aged 6–8 weeks, with weights ranging from 22 to 26 g. These mice were sourced from a reputable supplier and maintained in a certified pathogen-free facility. They were housed in polycarbonate cages under controlled environmental conditions (temperature: 20–22 °C; humidity: 40–60%) with a 12 h light/dark cycle. Mice had ad libitum access to filtered water and a standard rodent chow diet, ensuring their nutritional needs were met throughout the study.
Preparation of Test Item: The investigational solution that contains the compound 1 was prepared before administration to ensure its stability and efficacy. The preparation involved dissolving compound 1 in a solvent mixture comprising 5% ethanol and Cremophor, diluted in 95% phosphate-buffered saline (PBS). […] All solutions were prepared in a sterile environment to minimize the risk of contamination.
Experimental Design: Mice were randomly assigned to one of two experimental groups to eliminate bias in treatment effects. Group 1 (negative control) consisted of six mice that received intraperitoneal injections of the vehicle solvent (5% ethanol–Cremophor in 95% PBS). Group 2 (compound 1 treatment group) comprised seven mice receiving compound 1 at a dosage of 20 mg/kg body weight, administered via intraperitoneal injection. The dosage was selected based on preliminary dose–response studies ensuring safety and efficacy.
Treatment Protocol: The treatment regimen involved administering injections every two days over a one-week period, culminating in a total of three injections per mouse. This schedule was designed to maintain consistent therapeutic levels of compound 1 in the bloodstream, providing sufficient time for both pharmacological effects and assessment of any potential adverse reactions.
Assessment Parameters: Behavioral observations were meticulously recorded on a daily basis throughout the treatment period. Trained personnel monitored the mice for signs of toxicity or any deviations from normal behavior, including changes in activity levels, grooming patterns, and feeding behavior [35]. Body weight was measured at baseline prior to treatment, immediately before each injection, and at the conclusion of the treatment period to assess any potential effects of compound 1 on growth and overall health.
After the treatment phase, mice were humanely euthanized using approved methods to minimize distress. Major organs, including the spleen, liver, lungs, brain, heart, and kidneys, were carefully excised, weighed, and subjected to morphological examination to identify any structural abnormalities or pathological changes. The organ coefficients were calculated using the following formula:Organ Coefficient (mg/10 g) = 10 × […]/weight of the mouse.
Blood samples were collected post-euthanasia using heparinized tubes to prevent coagulation. Following collection, samples were centrifuged at 1500 rpm for 7 min to separate the plasma, which was then used for biochemical analysis. A clinical chemistry analyzer measured various parameters, including transaminases (AST, ALT), creatinine, uric acid, and key electrolytes (sodium, potassium, chloride, calcium, and phosphorus), alongside alkaline phosphatase levels. Hematological evaluations were performed, including red blood cell (RBC) counts, hemoglobin (HB) levels, hematocrit (HCT), mean corpuscular hemoglobin (MCH), and white blood cell (WBC) counts.

Data set [1] deals with microtubule network in MDA-MB-231 cells. Kind of data set: β-tubulin immunofluorescence. The settings on record: 0.3 µM, 24 h. In kind it is cell-based, human. As to the method: Cells grown on glass coverslips in full medium were serum-deprived for 24 h and exposed to 1 for 24 h at its IC50 value concentration. Cells were PBS-washed and fixed (cold methanol, 15 min, −20 °C), then primary antibody in blocking solution was added (4 °C/overnight), as described. The mouse anti-Bid (sc-373939) and anti-β-Actin (69879) and the rabbit anti-β Tubulin (9104) were obtained from Santa Cruz Biotechnology and employed at a 1:100 dilution. Coverslips were washed thrice with PBS, then the secondary antibody Alexa Fluor® 568 conjugate goat-anti-mouse and Alexa Fluor® 488 conjugate goat-anti-rabbit (1:500, Thermo Fisher Scientific, Waltham, MA, USA) was added. Nuclei were DAPI (Sigma Aldrich, Mila, Italy) stained (10 min, 0.2 μg/mL) and PBS washed thrice. For mitochondrial staining, cells were pre-incubated with prewarmed (37 °C) MitoTracker® Deep Red FM probe solution (MitoTracker® Mitochondrion-Selective Probes, Invitrogen European Headquarters, Paisley PA4 9RF, UK) for 20 min (fluorescence excitation = 644, fluorescence emission = 665). A fluorescence microscope (Leica DM 6000) and LAS-X software (Leica Application Suite X, 3.5.7.23225) were used to acquire and process all images.

As for `Cc1cc(C=NN=Cc2cc(C)c3[nH]c4ccc(Br)cc4c3c2C)c(C)c2c1[nH]c1ccc(Br)cc12` [Compound 1, N,N’-bis-(6-bromo-1,4-dimethyl-9H-carbazol-3-ylmethylene)-hydrazine], in the data set with Balb/c mice (one week), the behavior result was “normal behavioral patterns”, the “lung coefficient versus negative control” value is given as “notable increase” and the “toxic effects related to treatment” value is recorded as “no observable toxic effects”. Also, in the data set on Balb/c mice (one week, p > 0.05), the “body weight change versus negative control” value was “no significant differences”; the “hematological parameters (WBC, RBC, HB, HCT, MCV, MCH, MCHC, platelet counts) versus control” value is given as “no significant differences”; the “organ weights (spleen, liver, brain, heart, kidney, lung) versus negative control” value is listed as “no significant differences”; the “serum AST, ALT, creatinine, uric acid and electrolyte profiles versus control” value is “comparable”. Moreover, in the data set on Balb/c mice (three injections over one week), the “organ weight coefficient Brain” value was 0.13 ± 0.03 10× g (organ)/g(animal), the “organ weight coefficient Heart” value was 0.06 ± 0.01 10× g (organ)/g(animal), the “organ weight coefficient Kidney” value is on record as 0.07 ± 0.01 10× g (organ)/g(animal) and the “organ weight coefficient Liver” value was 0.54 ± 0.03 10× g (organ)/g(animal). In the data set with Balb/c mice (three injections over one week), the “organ weight coefficient Lung” value is 0.11 ± 0.01 10× g (organ)/g(animal) and the “organ weight coefficient Spleen” value is given as 0.07 ± 0.02 10× g (organ)/g(animal). Moreover, the microtubule network morphology entry in data set [1] is “net disorganization of the microtubule network”.
